The source of these data is US20050170345A1, “Neuroglobin is up-regulated by and protects neurons from hypoxic-ischemic injury” (priority 2001, published 2005).

“Also recorded” adds a separate entry of the source. Like-named read-outs stand apart in the source and are kept apart here. {Fluorescein} = fluorescein label

For data set [1], the system named is 17-20 kDa caspase-3 cleavage product. In words: Caspase-3 cleavage product immunofluorescence in ODN-transfected cortical neurons. It is filed as cell-based, mouse. Particulars: fluorescence microscopy, hypoxic cortical neurons. The protocol:
Cultures were fixed with 4% paraformaldehyde and incubated over night at 4° C. with one or more of the following primary antibodies: rabbit polyclonal anti-Ngb (1:200), mouse monoclonal anti-NeuN (1:200, Chemicon), and rabbit polyclonal anti-17-20 kDa caspase-3 cleavage product (1:100, New England Biolabs). The secondary antibodies (all 1:200) were fluorescein isothiocyanate-conjugated goat anti-rabbit or anti-mouse IgG (Vector) and rhodamine-conjugated donkey anti-rabbit IgG (Jackson ImmunoResearch). Controls for non-specific binding included omitting primary (FIG. 1C) or secondary antibodies. In addition, in some cultures, nuclei were labeled with 4′,6-diamidino-2-phenylindole (DAPI) or DNA strand breaks were labeled with the Klenow fragment of DNA polymerase I (Roche) followed by rhodamine avidin D (Vector), as described (Jin et al. (1999) J Neurochem 72: 1204-1214). Fluorescence signals were detected with a Nikon E800 epifluorescence microscope using excitation/emission wavelengths of 535/565 nm for rhodamine (red), 470/505 nm for fluorescein isothiocyanate (green) and 360/400 nm for DAPI (blue). Results were recorded with a Magnifire digital color camera (Optronics). […]

The subject of data set [2] is Ngb. As to the kind of experiment: Ngb expression in cultured cortical neurons treated with hypoxia mimetics or other stressors (Western blot). It is filed as cell-based, mouse. (In general: In western blotting, separated proteins are transferred to a membrane and probed.)
A further data set relates to Ngb mRNA. In words: Ngb mRNA expression in HN33 cells (RT-PCR, quantitative RT-PCR, Northern blot). Particulars: HN33 cells; for effect on hemin-induced Ngb expression at the mRNA level (quantitative RT-PCR): 1 h pretreatment then 50 μM hemin 24 h, LY83583 1 μM, KT5823 8 μM. It is filed as cell-based, mouse. The protocol:
(§1) HN33 cells were cultured as described (Lee et al. (1990) J Neurosci. 10: 1779-1787; Shi et al. (1998) J Neurochem., 70:1035-1044; Jin et al. (2000) Proc Nati Acad Sci USA., 97:10242-10247). Cells were plated at 4×10^5 cells/well onto uncoated, 6-well plastic culture dishes in Dulbecco's modified Eagle's medium containing 10% (v/v) fetal bovine serum, 100 units/ml of penicillin and 100 μg/ml of streptomycin, and maintained at 37° C. in humidified 95% air/5% CO2. Cells were treated with hemin (typically 50 μM) or 8-Br-cGMP (10 μM) for up to 3 days, without daily replacement. To suppress sGC or PKG activity, cells were pretreated for 1 hour with inhibitors before adding other reagents.
RT-PCR and Northern blot analyses were carried out as described previously (Zhu and Zhang (1999) Biochem Biophys Res Commun., 258:87-93). Briefly, total RNA from treated and untreated cells was extracted using a RNeasy Mini Kit (QIAGEN Operon, Valencia, Calif.), and DNA-free total RNA (2 μg per sample) was reverse-transcribed into first-strand cDNA using the Reverse Transcription System and Oligo-dT12-18 (GIBCO-BRL, Rockville, Md.) (Id.). Sequences of the primers used for PCR amplification were: Ngb forward, 5′ CTCTGGAACATGGCACTGTC 3′ (nt 135-154, SEQ ID NO:7); Ngb reverse, 5′ GCACTGGCTCGTCTCTTACT 3′ (nt 547-528, SEQ ID NO:8); β-actin forward, 5′ CACAGGCATTGTGATGGACTC 3′ (nt 524-544, SEQ ID NO:9); β-actin reverse, 5′ GCTCAGGAGGAGCAATGATCT 3′ (nt 582-563, (SEQ ID NO:10). Primers were designed based on the published sequences of these genes and were synth esized by QIAGEN Operon. All PCR primer pairs gave rise to only one discrete band of the expected size. PCR reactions were carried out in a total volume of 25 μl containing 2 μl cDNA, 1×PCR buffer (Boehringer Mannheim, Mannheim, FRG), 200 μM dNTPs, 0.6 U Taq DNA polymerase (Boehringer Mannheim), and 0.2 μM primers. The optimal conditions for amplification (temperature and cycle number) were determined experimentally according to previously published procedures (Id.). Different ratios of Ngb to b-actin primer pairs were tested to ensure that Ngb and b-actin were amplified with similar efficiency, and a kinetic study was undertaken to establish the number of cycles sufficient to detect both Ngb and b-actin without reaching saturation for either. The parameters chosen for PCR amplification were 95° C. for 1 minute, 57° C. for 45 seconds, 72° C. for 1 minute for 25-30 cycles, and a final incubation at 72° C. for 10 minutes. PCR products were separated on 1.2% agarose gels, visualized by ethidium bromide staining, and quantified using a ChemiImage System (Alpha Innotech Corporation, San Leandro, Calif.).
For Northern blotting, 15 μg of total RNA from each sample was fractionated on 1% formaldehyde/agarose gels and transferred to Hybond-N nylon membranes (Amersham Pharmacia, Piscataway, N.J.). Filters were hybridized with probes for Ngb MRNA, and β-actin mRNA at 68° C. in hybridization buffer (Clontech, Palo Alto, Calif.). ^32P-radiolabeled DNA probes were synthesized using cDNA obtained from RT-PCR amplification.
Quantitative RT-PCR analysis was carried out as described previously.8 PCR reactions were carried out in a total volume of 25 μl containing 1 μI cDNA, 1×PCR buffer (Boehringer Mannheim), 200 μM dNTPs, 0.6 U Taq DNA polymerase (Boehringer Mannheim), two pairs of primers (one pair for the Ngb gene, another for the b-actin gene used as an internal control). The optimal conditions for amplification (the proportion between the two pairs of primers, temperatures, and cycle numbers) were determined experimentally according to previously established procedures.8 PCR products were separated on 1.2% agarose gels, visualized by ethidium bromide staining, and quantified using a ChemiImage System (Alpha Innotech Corporation).

A further data set relates to Ngb protein. In words: Ngb protein expression in HN33 cells (Western blot). Particulars: HN33 cells; for effect on induction of Ngb expression by hemin (Western blot): 1 h pretreatment then 50 μM hemin 24 h, LY83583 1 μM, KT5823 8 μM, GF109203X 10 μM, PD98059 20 μM. It counts as cell-based, mouse. The protocol:
as §1
(§2) Cells were washed twice in PBS, and whole-cell extracts were prepared by adding 10 volumes of 1× sample buffer containing 2% SDS, 100 mM dithiothreitol, 60 mM Tris (pH 6.8) and 10% glycerol, and boiled for 5 minutes. Protein concentrations were determined using Bradford Protein Assays (Bio-Rad, Hercules, Calif.); 30 μg of protein was analyzed by 12% or 15% SDS-PAGE and transferred to Immuno-Blot PVDF membranes (Bio-Rad). Membranes were probed with affinity-purified anti-Ngb antibody, which was produced by immunizing with a synthetic peptide corresponding to amino-acids 35-50 (NH2-CLSSPEFLDHIRKVML-COOH, (SEQ ID NO:11) of mouse Ngb (Sun et aL (2001 Proc Natl Acad Sci USA. 98:15306-15311),and the signal was detected with Boehringer Mannheim chemiluminescence blotting kits. Differences in protein expression on Western blots were quantified using a GS-710 calibrated imaging densitometer and Quantity One software (Bio-Rad).

Data set [3] has as its system vascular endothelial growth factor. Particulars: aortic smooth muscle cells; cited from earlier work.
The test system of data set [4] is Ngb. As to the kind of experiment: Hypoxia-induced Ngb expression in HN33 cells pretreated with protein kinase inhibitors (Western blot). It is filed as cell-based, mouse. Particulars: inhibitor 1 hour then hypoxia (95% N2/5% CO2) 20 hours. The protocol: FIGS. 10A and 10B show the effects of protein kinase inhibitors on hypoxia-induced Ngb expression. HN33 cells were treated with protein kinase inhibitors at the indicated concentrations for 1 hour, and then exposed to hypoxia (95% N2/5% CO2) for 20 hours. Western blotting was used to detect Ngb protein expression (FIG. 10A), which was quantified by computer densitometry (FIG. 10B). Data are representative blots (top) or means±SEM (bottom) from 3 experiments. *P<0.05 for drug treatment relative to hypoxia alone.
as §2

On to “5′-ATG GAG CGC CCG GA-3′ (sense ATGGAGCGCCCGGA; DNA, 5' {Fluorescein}, backbone and methylation of C not given here) [sense ODN]”, for which, in data set [1], the “transfected cells co-expressing the 17-20 kDa caspase-3 cleavage product” value is given as “few”.
In the case of `CN[C@@H]1C[C@H]2O[C@@](C)([C@@H]1OC)n1c3ccccc3c3c4c(c5c6ccccc6n2c5c31)C(=O)NC4` [staurosporine], the Ngb expression entry with Ngb [2] (cultured cortical neurons treated 24 h, 300 μM CoCl2 (Co2+), 100 μM Dfx, 0.1 μM staurosporine, 500 μM SNP, Western blot) was “did not increase Ngb expression; also recorded: no change”.
In the case of `Nc1nc2c(nc(Br)n2[C@@H]2O[C@@H]3COP(=O)(O)O[C@H]3[C@H]2O)c(=O)[nH]1` [8-Br-cGMP], the “increase in Ngb mRNA expression” value in the data set on Ngb mRNA (10 μM 8-Br-cGMP, 2-24 h) is given as 3- to 4 fold. Moreover, in the data set on Ngb protein, the “inductive effect of hemin on neuroglobin reproduced by the agent” value is recorded as “mimicked”. Further, the “increase in Ngb protein expression” value with Ngb protein (10 μM 8-Br-cGMP, 2-24 h) was 2- to 2.5 fold. Moreover, the “effect on hypoxic induction of vascular endothelial growth factor” value in data set [3] is given as “suppress”.
In the case of `CN(C)CCCn1cc(C2=C(c3c[nH]c4ccccc34)C(=O)NC2=O)c2ccccc21` [GF109203X], the “effect on induction of Ngb expression by hemin (Western blot)” value (“effect on induction of Ngb expression” below) in the data set with Ngb protein is listed as “no significant effect”.
In the case of `[Cl-].[Cl-].[Co+2]` [CoCl2], the Ngb expression result in the data set with Ngb [2] is listed as “increased Ngb expression”.
As to `COC(=O)[C@@]1(OC)C[C@H]2O[C@]1(C)n1c3ccccc3c3c4c(c5c6ccccc6n2c5c31)C(=O)N(C)C4` [KT5823], the “effect on hemin-induced Ngb expression at the mRNA level (quantitative RT-PCR)” value with Ngb mRNA is recorded as “significantly inhibited”. The “effect on induction of Ngb expression” value with Ngb protein is “attenuated; also recorded: significantly diminished”. Also, in the data set on Ngb [4], the “effect on hypoxic induction of Ngb” value is reported as “not blocked”.
In the case of `COc1cccc(-c2cc(=O)c3ccccc3o2)c1N` [PD98059], the “effect on induction of Ngb expression” value in the data set with Ngb protein is “no significant effect”. Besides, in the data set on Ngb [4], the “effect on hypoxic induction of Ngb” value is recorded as “blocked”.
Take `O=C1C(Nc2ccccc2)=CC(=O)c2ncccc21` [LY83583]: the “effect on hemin-induced Ngb expression at the mRNA level (quantitative RT-PCR)” value in the data set on Ngb mRNA was “significantly inhibited”. Further, the “effect on induction of Ngb expression” value with Ngb protein is reported as “attenuated; also recorded: significantly diminished”. Moreover, the “effect on hypoxic induction of Ngb” value with Ngb [4] is recorded as “not blocked”.
